# Patent US20250388604A1, “Compounds and Their Use as PDE4 Activators” (Mironid Limited, priority 2022, published 2025)
# System: m-IMCD3 cells
# Experiment: Inhibition of PGE2-stimulated in vitro cyst formation in m-IMCD3 cells
# Format: cell-based, mouse
# Conditions: Mus musculus, mIMCD3, 144 h, 3 μM; mean cyst area, 100% for (DMSO + PGE2) and 0% for DMSO control; 6 days of culture; read-out: % Cyst area after incubation with 3 μM test compound
# Experimental: HEK 293 and MDCK cells (Public Health England, Cell Culture Collections) were maintained in Dulbecco's Modified Eagle's Medium (DMEM) supplemented with 10% (v/v) fetal bovine serum (FBS) (Seralab), 2 mM L-glutamine and 100 U/mL penicillin streptomycin cocktail (ThermoFisher); termed complete media. Clonal HEK 293 cell lines were maintained in complete media supplemented with 0.6 mg/ml G418 (Enzo Life Sciences). Mouse inner medullary collecting duct (m-IMCD3) cells [American Type Culture Collection (ATCC)] were maintained in media consisting of DMEM/Hams F-12 50/50 Mix (DMEM F12; Corning) supplemented with penicillin streptomycin cocktail (100 U/mL) and FBS (10% v/v) (DMEM F12-10% FBS).
# The mouse Inner Medullary Collecting Duct cell line (m-IMCD3) spontaneously forms cystic spheroids in 3D culture with a Type 1 collagen/Matrigel extracellular matrix. This process can be stimulated with agents which raise intracellular cAMP and is used as an in vitro model for the formation of cystic structures in the kidneys of patients with ADPKD.
# Rat Collagen I (Fisher Scientific) is prepared on ice by neutralising with 1M NaOH and diluting with a 2× volume of DMEM/F12+10% FBS. This is mixed 1:1.1 with ice cold Matrigel (Corning) for coating plates (coating mix), and 1:0.93 with Matrigel for cell plating (plating mix).
# The assay is conducted in the wells of a 96-well plate culture dish using a total volume of 130 μL of collagen/Matrigel/DMEM F12-10% FBS suspension in growth media for each matrix plug per individual well. Initially, 30 μL of collagen/Matrigel/DMEM F12-10% FBS (coating mix) is added into the well of a 96 well plate and the collagen is set to a gel by incubating at 37° C. for at least 15 minutes. A second layer of 100 μL collagen/Matrigel suspension (plating mix) containing m-IMCD3 cells (2.75×10^6 m-IMCD3 cells per 96-well plate) is layered over the coating mix and the collagen/Matrigel/cell mix again set to a gel by incubating at 37° C. Cell cultures are maintained at 37° C. in an atmosphere of 5% CO2, 95% air.
# Between 18 and 24 h after plating, test compound(s) as DMSO stock solutions [0.1% (v/v) final DMSO concentration] and PGE2 (100 nM final concentration) in DMEM F12-10% FBS are added in quadruplicate wells per condition. Media, together with the test compound and PGE2 are replenished after 2 or 3 days. After 6 days of culture z stack images of the wells are captured using the Nikon Eclipse Ti2-E microscope. Nikon General Analysis software is used to measure the following parameters in each well: the mean cyst area, the number of cysts, and the total cyst area.
# PDE4 long form activators inhibited in vitro cyst formation in m-IMCD3 cells. Data are shown in Table 4 as mean cyst area (%), compared to 100% for (DMSO+PGE2) and 0% for DMSO control.
row,SMILES,activity at 3 µM [%]
1,"Cc1ccc(C(=O)N2CCc3nc(N4C5CCC4CNC5)sc3C2)cc1 [Example 196, (2-(3,8-diazabicyclo[3.2.1]octan-8-yl)-6,7-dihydrothiazolo[5,4-c]pyridin-5(4H)-yl)(p-tolyl)methanone]",-1
2,"CCCN1CC2CCC(C1)N2c1nc2c(s1)CN(C(=O)CC1CCCC1)CC2 [Example 292, 2-cyclopentyl-1-(2-(3-propyl-3,8-diazabicyclo[3.2.1]octan-8-yl)-6,7-dihydrothiazolo[5,4-c]pyridin-5(4H)-yl)ethan-1-one]",0
3,"N#Cc1ccccc1C(=O)N1CCc2nc(N3C4CCC3CNC4)sc2C1 [Example 213, 2-(2-(3,8-diazabicyclo[3.2.1]octan-8-yl)-4,5,6,7-tetrahydrothiazolo[5,4-c]pyridine-5-carbonyl)benzonitrile]",17
4,"Cc1cccc(C(=O)N2CCc3nc(N4C5CCC4CNC5)sc3C2)c1 [Example 195, (2-(3,8-diazabicyclo[3.2.1]octan-8-yl)-6,7-dihydrothiazolo[5,4-c]pyridin-5(4H)-yl)(m-tolyl)methanone]",1
5,"O=C(COc1ccccc1C(F)F)N1CCc2nc(N3C4CCC3CNC4)sc2C1 [Example 173, 1-(2-(3,8-diazabicyclo[3.2.1]octan-8-yl)-6,7-dihydrothiazolo[5,4-c]pyridin-5(4H)-yl)-2-(2-(difluoromethyl)phenoxy)ethan-1-one]",-2
6,"COc1cccc(OC)c1OCC(=O)N1CCc2nc(N3C4CCC3CNC4)sc2C1 [Example 172, 1-(2-(3,8-diazabicyclo[3.2.1]octan-8-yl)-6,7-dihydrothiazolo[5,4-c]pyridin-5(4H)-yl)-2-(2,6-dimethoxyphenoxy)ethan-1-one]",10
7,"CC(C)Oc1ccccc1C(=O)N1CCc2nc(N3C4CCC3CNC4)sc2C1 [Example 211, (2-(3,8-diazabicyclo[3.2.1]octan-8-yl)-6,7-dihydrothiazolo[5,4-c]pyridin-5(4H)-yl)(2-isopropoxyphenyl)methanone]",40
8,"O=C(CC1CCCC1)N1Cc2sc(N3C4CCC3CNC4)nc2C(F)(F)C1 [Example 270, 1-(2-(3,8-diazabicyclo[3.2.1]octan-8-yl)-7,7-difluoro-6,7-dihydrothiazolo[5,4-c]pyridin-5(4H)-yl)-2-cyclopentylethan-1-one]",2
9,"O=C(c1coc2ccccc12)N1CCc2nc(N3C4CCC3CNC4)sc2C1 [Example 187, (2-(3,8-diazabicyclo[3.2.1]octan-8-yl)-6,7-dihydrothiazolo[5,4-c]pyridin-5(4H)-yl)(benzofuran-3-yl)methanone]",-8
10,"O=C(N1CCc2nc(N3C4CCC3CNC4)sc2C1)C(F)(F)c1ccnc(F)c1 [Example 251, 1-(2-(3,8-diazabicyclo[3.2.1]octan-8-yl)-6,7-dihydrothiazolo[5,4-c]pyridin-5(4H)-yl)-2,2-difluoro-2-(2-fluoropyridin-4-yl)ethan-1-one]",-6
11,"O=C(c1cccc2c1OCC2)N1CCc2nc(N3C4CCC3CNC4)sc2C1 [Example 230, (2-(3,8-diazabicyclo[3.2.1]octan-8-yl)-6,7-dihydrothiazolo[5,4-c]pyridin-5(4H)-yl)(2,3-dihydrobenzofuran-7-yl)methanone]",22

# Same assay, conditions: Mus musculus, mIMCD3, 144 h, 10 μM; mean cyst area, 100% for (DMSO + PGE2) and 0% for DMSO control; 6 days of culture; read-out: % Cyst area after incubation with 10 μM test compound
row,SMILES,activity at 10 µM [%]
1,"CC1(NC(=O)N2CCc3nc(N4C5CCC4CNC5)sc3C2)CCC1 [Example 124, 2-(3,8-diazabicyclo[3.2.1]octan-8-yl)-N-(1-methylcyclobutyl)-6,7-dihydrothiazolo[5,4-c]pyridine-5(4H)-carboxamide]",-12
2,"O=C(NCc1ccc(F)cc1)N1CCc2nc(N3C4CCC3CNC4)sc2C1 [Example 55, 2-(3,8-diazabicyclo[3.2.1]octan-8-yl)-N-(4-fluorobenzyl)-6,7-dihydrothiazolo[5,4-c]pyridine-5(4H)-carboxamide]",0
3,"O=C(COc1ccc(F)cc1)N1CCn2nc(N3C4CCC3CNC4)cc2C1 [Example 72, 1-(2-(3,8-diazabicyclo[3.2.1]octan-8-yl)-6,7-dihydropyrazolo[1,5-a]pyrazin-5(4H)-yl)-2-(4-fluorophenoxy)ethan-1-one]",-3
4,"O=C(CC12CC(C1)C2)N1CCc2nc(N3C4CCC3CNC4)sc2C1 [Example 12, 1-(2-(3,8-diazabicyclo[3.2.1]octan-8-yl)-6,7-dihydrothiazolo[5,4-c]pyridin-5(4H)-yl)-2-(bicyclo[1.1.1]pentan-1-yl)ethan-1-one]",-2
5,"O=C(NC1CCC(F)(F)CC1)N1CCn2nc(N3C4CCC3CNC4)cc2C1 [Example 70, 2-(3,8-diazabicyclo[3.2.1]octan-8-yl)-N-(4,4-difluorocyclohexyl)-6,7-dihydropyrazolo[1,5-a]pyrazine-5(4H)-carboxamide]",7
6,"CC1(C)CCCC1C(=O)N1CCc2nc(N3C4CCC3CNC4)sc2C1 (stereo not shown) [Example 37, (2-(3,8-diazabicyclo[3.2.1]octan-8-yl)-6,7-dihydrothiazolo[5,4-c]pyridin-5(4H)-yl)(2,2-dimethylcyclopentyl)methanone]",-2
7,"CC(C)CC(=O)N1CCc2nc(N3C4CCC3CNC4)sc2C1 [Example 9, 1-(2-(3,8-diazabicyclo[3.2.1]octan-8-yl)-6,7-dihydrothiazolo[5,4-c]pyridin-5(4H)-yl)-3-methylbutan-1-one]",0
8,"O=C(N1CCc2nc(N3C4CCC3CNC4)sc2C1)C1(c2ccccc2)CC1 [Example 33, (2-(3,8-diazabicyclo[3.2.1]octan-8-yl)-6,7-dihydrothiazolo[5,4-c]pyridin-5(4H)-yl)(1-phenylcyclopropyl)methanone]",8
9,"CC1(C)CN(C(=O)CC2CCC(F)(F)CC2)Cc2sc(N3C4CCC3CNC4)nc21 [Example 98, 1-(2-(3,8-diazabicyclo[3.2.1]octan-8-yl)-7,7-dimethyl-6,7-dihydrothiazolo[5,4-c]pyridin-5(4H)-yl)-2-(4,4-difluorocyclohexyl)ethan-1-one]",3
10,"CC1(C)CCC(C(=O)N2CCc3nc(N4C5CCC4CNC5)sc3C2)C1 (stereo not shown) [Example 38, (2-(3,8-diazabicyclo[3.2.1]octan-8-yl)-6,7-dihydrothiazolo[5,4-c]pyridin-5(4H)-yl)(3,3-dimethylcyclopentyl)methanone]",8
11,"O=C(N1CCc2nc(N3C4CCC3CNC4)sc2C1)N1CCC2(CCCC2)C1 [Example 122, (2-(3,8-diazabicyclo[3.2.1]octan-8-yl)-6,7-dihydrothiazolo[5,4-c]pyridin-5(4H)-yl)(2-azaspiro[4.4]nonan-2-yl)methanone]",-8
12,"CC1(NC(=O)N2CCc3nc(N4C5CCC4CNC5)sc3C2)CCCC1 [Example 125, 2-(3,8-diazabicyclo[3.2.1]octan-8-yl)-N-(1-methylcyclopentyl)-6,7-dihydrothiazolo[5,4-c]pyridine-5(4H)-carboxamide]",-11
13,"O=C(CC1CCCC1)N1CCc2nc(N3CCN[C@@H](CO)C3)sc2C1 [Example 117, (R)-2-cyclopentyl-1-(2-(3-(hydroxymethyl)piperazin-1-yl)-6,7-dihydrothiazolo[5,4-c]pyridin-5(4H)-yl)ethan-1-one]",1
14,"O=C(CC1CCC(F)(F)CC1)N1CCn2nc(N3C4CCC3CNC4)nc2C1 [Example 97, 1-(2-(3,8-diazabicyclo[3.2.1]octan-8-yl)-5,6-dihydro-[1,2,4]triazolo[1,5-a]pyrazin-7 (8H)-yl)-2-(4,4-difluorocyclohexyl)ethan-1-one]",6
